Data on 18 molecules can be found in patent US12071434B2, “Heterocyclic compound” (Takeda Pharmaceutical Company Limited, priority 2018, dated 2024).

For this assay, the target named is T1, human orexin type 2 receptor (Homo sapiens, UniProt O43614).
T1 construct: expressed in transfected cells
T1 sequence (O43614 1-444): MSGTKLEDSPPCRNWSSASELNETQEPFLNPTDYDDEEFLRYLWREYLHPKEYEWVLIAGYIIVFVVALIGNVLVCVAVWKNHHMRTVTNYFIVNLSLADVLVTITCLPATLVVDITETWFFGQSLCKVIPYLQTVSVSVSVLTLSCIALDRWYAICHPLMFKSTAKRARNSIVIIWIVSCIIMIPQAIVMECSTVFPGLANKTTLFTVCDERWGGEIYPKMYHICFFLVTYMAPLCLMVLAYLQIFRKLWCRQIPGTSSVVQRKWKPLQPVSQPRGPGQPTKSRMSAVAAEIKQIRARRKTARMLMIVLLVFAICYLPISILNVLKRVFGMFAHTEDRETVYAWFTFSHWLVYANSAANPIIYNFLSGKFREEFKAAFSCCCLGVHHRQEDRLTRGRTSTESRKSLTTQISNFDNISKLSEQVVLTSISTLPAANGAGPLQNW
Briefly: Measurement of orexin type 2 receptor agonist activity (calcium fluorescence, Fluo-4 AM, FDSS) in CHO cells forcibly expressing human OX2 receptor. Format: cell-based. The note with it: test compound 3 μM, DMSO = 0%, orexin A (human) 10 nM = 100%. From the text: To obtain a cell clone stably expressing human orexin type 2 receptor, human orexin type 2 receptor cDNA was inserted into pcDNA3.1(+) plasmid vector (Invitrogen), and a plasmid DNA for expression of human orexin type 2 receptor (pcDNA3.1(+)/hOX2R) was cloned. The plasmid DNA was introduced into CHO-dhfr cell by an electroporation method, and human orexin type 2 receptor expressing clone cells were obtained by limiting dilution method by using G418 drug resistance as a selection marker.
CHO cells forcibly expressing human OX2 receptor were seeded in each well of 384 well black transparent bottom plate (BD Falcon) at 7,500 cells/well, and cultured for one day in a 5% CO2 incubator at 37° C. After removal of the medium in the cell plate, assay buffer A containing a calcium indicator (HBSS (Thermo Fisher Scientific), 20 mM HEPES (Thermo Fisher Scientific), 0.1% BSA (Sigma-Aldrich), 2.5 μg/mL Fluo-4 AM (DOJINDO Chemical), 0.08% Pluronic F127 (DOJINDO Chemical), 1.25 mM probenecid (DOJINDO Chemical)) was added at 30 μL/well. The plate was stood for 30 min in a 5% CO2 incubator at 37° C., and further stood at room temperature for 30 min. A test compound prepared by diluting with assay buffer B (HBSS, 20 mM HEPES, 0.1% BSA) was added at 10 μL/well, and the fluorescence value was measured by FDSSpCELL (Hamamatsu Photonics K.K.) every one sec for 1 min, and thereafter every two sec for 1 min 40 sec. The activity (%) of the test compound was calculated assuming that variation in the fluorescence value when DMSO was added instead of the test compound was 0%, and variation in the fluorescence value when orexin A (human) (PEPTIDE INSTITUTE, INC.) was added at the final concentration of 10 nM was 100%.
As for `Cc1ccc2n(c1=O)[C@@H](Cc1cccc(-c3cccc(F)c3)c1)[C@@H](NS(C)(=O)=O)CC2` (relative stereo) [Example 69, rel-N-{(3S,4S)-4-[(3′-fluoro[1,1′-biphenyl]-3-yl)methyl]-7-methyl-6-oxo-1,3,4,6-tetrahydro-2H-quinolizin-3-yl}methanesulfonamide], the “0X2R agonist activity (3 μM, %)” value worked out at 94%.

As to `CCc1c(C)n(C)c2c(c1=O)[C@@H](Cc1cccc(-c3ccccc3)c1)[C@@H](NS(C)(=O)=O)CC2` (racemic) [Example 211, rac-N-{(5R,6S)-5-[([1,1′-biphenyl]-3-yl)methyl]-3-ethyl-1,2-dimethyl-4-oxo-1,4,5,6,7,8-hexahydroquinolin-6-yl}methanesulfonamide], the “0X2R agonist activity (3 μM, %)” value was found to be 82%.

`CCc1ccc2n(c1=O)[C@@H](Cc1cccc(-c3cc(F)cc(F)c3)c1F)[C@@H](NS(C)(=O)=O)CC2` (racemic) [Example 132, rac-N-{[3S,4S)-7-ethyl-6-oxo-4-[(2,3′,5′-trifluoro[1,1′-biphenyl]-3-yl)methyl]-1,3,4,6-tetrahydro-2H-quinolizin-3-yl}methanesulfonamide]: the “0X2R agonist activity (3 μM, %)” value was 104%.

Turning to `[2H]C([2H])([2H])C([2H])(n1cnc2c(c1=O)C(Cc1cccc(-c3ccccc3)c1F)C(NS(=O)(=O)C1CC1)CC2)C([2H])([2H])[2H]` [Example 212, rel-N-{(5R,6S)-5-[(2-fluoro[1,1′-biphenyl]-3-yl)methyl]-4-oxo-3-[(~2~H_7_)propan-2-yl]-3,4,5,6,7,8-hexahydroquinazolin-6-yl}cyclopropanesulfonamide], the “0X2R agonist activity (3 μM, %)” value is given as 99%.

Regarding `CC(C)N1CNC2=C(C1=O)[C@@H](Cc1csc(-c3ccccc3F)n1)[C@@H](NS(=O)(=O)C1(F)CC1)CC2` (relative stereo) [Example 157, rac-1-fluoro-N-[(5R,6S)-5-{[2-(2-fluorophenyl)-1,3-thiazol-4-yl]methyl}-4-oxo-3-(propan-2-yl)-1,2,3,4,5,6,7,8-octahydroquinazolin-6-yl]cyclopropane-1-sulfonamide], the “0X2R agonist activity (3 μM, %)” value is 99%.

For the molecule `CCn1ccc2c(c1=O)[C@@H](Cc1cccc(-c3cccc(F)c3)c1)[C@@H](NS(C)(=O)=O)CC2` (racemic) [Example 79, rac-N-{(7S,8R)-2-ethyl-8-[(3′-fluoro[1,1′-biphenyl]-3-yl)methyl]-1-oxo-1,2,5,6,7,8-hexahydroisoquinolin-7-yl}methanesulfonamide], the “0X2R agonist activity (3 μM, %)” value was determined as 102%.

Consider `COC1(C(=O)N[C@H]2CCc3ncn(C(C)C)c(=O)c3[C@H]2Cc2cccc(-c3ccccc3)c2)CC1` (racemic) [Example 63, rac-N-[(5R,6S)-5-[([1,1′-biphenyl]-3-yl)methyl]-4-oxo-3-(propan-2-yl)-3,4,5,6,7,8-hexahydroquinazolin-6-yl]-1-methoxycyclopropane-1-carboxamide], for which the “0X2R agonist activity (3 μM, %)” value is given as 92%.

Regarding `Cc1nn(C)c(=O)c2c1CC[C@H](NS(C)(=O)=O)[C@@H]2Cc1cccc(-c2ccccc2)c1` (racemic) [Example 96, rac-N-{(5R,6S)-5-[([1,1′-biphenyl]-3-yl)methyl]-1,3-dimethyl-4-oxo-3,4,5,6,7,8-hexahydrophthalazin-6-yl}methanesulfonamide], the “0X2R agonist activity (3 μM, %)” value is 71%.

With `CC(C)n1cnc2c(c1=O)[C@@H](Cc1cccc(-c3ccccc3F)c1F)[C@@H](NS(=O)(=O)C1(F)CC1)CC2` [Example 183, N-[(5R,6S)-5-[(2,2′-difluoro[1,1′-biphenyl]-3-yl)methyl]-4-oxo-3-(propan-2-yl)-3,4,5,6,7,8-hexahydroquinazolin-6-yl]-1-fluorocyclopropane-1-sulfonamide], the “0X2R agonist activity (3 μM, %)” value is 95%.

On to `CN1CC[C@@H]2CC[C@H](NS(C)(=O)=O)[C@H](Cc3cccc(-c4ccccc4)c3)N2C1=O` (racemic) [Example 62, rac-N-{(4aS,7S,8S)-8-[([1,1′-biphenyl]-3-yl)methyl]-2-methyl-1-oxooctahydro-1H-pyrido[1,2-c]pyrimidin-7-yl}methanesulfonamide], for which the “0X2R agonist activity (3 μM, %)” value was 92%.

Take `CC(C)n1cnc2c(c1=O)C(Cc1cccc(-c3cccc(F)c3F)c1)C(NS(=O)(=O)C1(F)CC1)CC2` (stereo not drawn) [Example 191, rel-N-{5-[(2′,3′-difluoro[1,1′-biphenyl]-3-yl)methyl]-4-oxo-3-(propan-2-yl)-3,4,5,6,7,8-hexahydroquinazolin-6-yl}-1-fluorocyclopropane-1-sulfonamide]: the “0X2R agonist activity (3 μM, %)” value is 90%.

On to `CC(C)n1ccc2c(c1=O)[C@@H](Cc1cccc(-c3ccccc3)c1)[C@@H](NS(C)(=O)=O)CC2` (racemic) [Example 52, rac-N-[(7S,8R)-8-[([1,1′-biphenyl]-3-yl)methyl]-1-oxo-2-(propan-2-yl)-1,2,5,6,7,8-hexahydroisoquinolin-7-yl]methane sulfonamide], for which the “0X2R agonist activity (3 μM, %)” value amounted to 90%.

With `CC(C)n1cnc2c(c1=O)[C@@H](Cc1cccc(-c3ccccc3F)c1)[C@@H](NS(=O)(=O)C1CC1)CC2` [Example 192, N-[(5R,6S)-5-[(2′-fluoro[1,1′-biphenyl]-3-yl)methyl]-4-oxo-3-(propan-2-yl)-3,4,5,6,7,8-hexahydroquinazolin-6-yl]cyclopropanesulfonamide], the “0X2R agonist activity (3 μM, %)” value was determined as 101%.

Take `Cc1ccc2n(c1=O)C(Cc1cccc(-c3cccc(F)c3)c1)C(NC(=O)[C@@H]1CCCO1)CC2` (stereo in doubt) [Example 44, (2S)-N-{(3S*,4S*)-4-[(3′-fluoro[1,1′-biphenyl]-3-yl)methyl]-7-methyl-6-oxo-1,3,4,6-tetrahydro-2H-quinolizin-3-yl}oxolane-2-carboxamide]: the “0X2R agonist activity (3 μM, %)” value is listed as 96%.

`Cc1cnc2n(c1=O)[C@@H](Cc1cccc(-c3ccccc3)c1)[C@@H](NS(C)(=O)=O)CC2` (racemic) [Example 94, rac-N-{(6S,7S)-6-[([1,1′-biphenyl]-3-yl)methyl]-3-methyl-4-oxo-6,7,8,9-tetrahydro-4H-pyrido[1,2-a]pyrimidin-7-yl}methanesulfonamide]: the “0X2R agonist activity (3 μM, %)” value is on record as 89%.

`CCS(=O)(=O)N[C@H]1CCc2ncn(C(C)C)c(=O)c2[C@H]1Cc1cccc(-c2cccc(F)c2F)c1` (racemic) [Example 85, rac-N-[(5R,6S)-5-[(2′,3′-difluoro[1,1′-biphenyl]-3-yl)methyl]-4-oxo-3-(propan-2-yl)-3,4,5,6,7,8-hexahydroquinazolin-6-yl]ethanesulfonamide]: the “0X2R agonist activity (3 μM, %)” value is 98%.

Consider `Cc1cc(C)c(=O)n2c1CC[C@H](NS(C)(=O)=O)[C@@H]2Cc1cccc(-c2ccccc2)c1` (racemic) [Example 13, rac-N-{(3S,4S)-4-[([1,1′-biphenyl]-3-yl)methyl]-7,9-dimethyl-6-oxo-1,3,4,6-tetrahydro-2H-quinolizin-3-yl}methanesulfonamide], for which the “0X2R agonist activity (3 μM, %)” value is 112%.

With `CCn1c(C)nc2c(c1=O)[C@@H](Cc1cccc(-c3cccc(C)c3)c1)[C@@H](NS(C)(=O)=O)CC2` (racemic) [Example 78, rac-N-{(5R,6S)-3-ethyl-2-methyl-5-[(3′-methyl[1,1′-biphenyl]-3-yl)methyl]-4-oxo-3,4,5,6,7,8-hexahydroquinazolin-6-yl}methanesulfonamide], the “0X2R agonist activity (3 μM, %)” value is given as 100%.
